One data set deals with plasma protein. To be noted: cited from earlier work.
For data set [1] the following is noted: cited from earlier work; for pulmonary deposition ratio, MDI: metered dose inhaler (TA: Azmacort MDI with spacer).
The conditions of data set [2]: cited from earlier work; for half-life after intravenous administration: intravenous (FP: terminal half-life).
Data set [3] is described as follows: Plasma concentration after intratracheal administration in rats. The class given is in vivo. The method, then:
Characterization of films deposited on silicon wafers or glass slides was performed using SEM. FTIR, and NMR to characterize polymer structure and morphology. The BUD10 and BUD25 coated powders were tested in vitro to assess differences in the dissolution rates. […] Comparison of the plasma concentrations after IT administration of the coated powders with uncoated BUD powders and IV administration of BUD solution, as well as with FP after IT administration, were performed to compare absorption rates. Finally, the pulmonary targeting of coating BUD25 powders after IT administration was compared with the pulmonary targeting of uncoated BUD and FP powders after IT administration and BUD solution after IV administration. Verification of deposited polymer on silicon wafers using NMR and FTIR was used to characterize molecular structure.

For data set [4] the following is noted: rats; cited from earlier work.
The target of data set [5] is T1, glucocorticoid receptor (GR) (Homo sapiens, UniProt P04150).
T1 sequence (P04150 1-777): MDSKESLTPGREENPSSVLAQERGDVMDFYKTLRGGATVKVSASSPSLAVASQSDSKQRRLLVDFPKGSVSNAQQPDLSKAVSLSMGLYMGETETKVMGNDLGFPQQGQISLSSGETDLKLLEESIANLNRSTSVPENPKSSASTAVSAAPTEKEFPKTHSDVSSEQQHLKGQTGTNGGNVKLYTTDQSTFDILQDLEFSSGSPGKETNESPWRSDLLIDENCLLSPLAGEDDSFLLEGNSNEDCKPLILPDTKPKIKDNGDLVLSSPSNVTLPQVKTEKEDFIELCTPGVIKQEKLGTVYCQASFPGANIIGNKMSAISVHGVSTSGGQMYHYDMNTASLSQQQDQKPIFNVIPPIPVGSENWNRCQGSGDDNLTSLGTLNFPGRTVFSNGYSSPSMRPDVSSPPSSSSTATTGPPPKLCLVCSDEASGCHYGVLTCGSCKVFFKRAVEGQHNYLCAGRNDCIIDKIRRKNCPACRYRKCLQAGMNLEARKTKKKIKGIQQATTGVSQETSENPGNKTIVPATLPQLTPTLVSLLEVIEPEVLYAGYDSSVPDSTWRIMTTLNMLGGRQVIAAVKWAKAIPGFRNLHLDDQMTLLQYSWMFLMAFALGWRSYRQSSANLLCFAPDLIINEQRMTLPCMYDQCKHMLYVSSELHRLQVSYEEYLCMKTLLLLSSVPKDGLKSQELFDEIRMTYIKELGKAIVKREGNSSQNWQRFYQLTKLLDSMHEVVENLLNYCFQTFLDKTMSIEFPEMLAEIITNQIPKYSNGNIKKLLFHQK
As to conditions: cited from earlier work.

“And” between values parts separate entries of the source, which are not always exact repeats. Equal values may be shown once. Read-outs that look alike come from different tables or passages of the source.

Turning to `CC1(C)O[C@@H]2C[C@H]3[C@@H]4CCC5=CC(=O)C=C[C@]5(C)[C@@]4(F)[C@@H](O)C[C@]3(C)[C@]2(C(=O)CO)O1` [TA, triamcinolone acetonide], in the data set on plasma protein, the plasma protein binding is 71%. For the same compound, the “pulmonary deposition ratio, MDI” value in data set [1] is “approximately 22%”. In addition, the mean residence time in data set [2] (after intravenous administration) is 2.7 h. Moreover, the “absorption of suspension in the lungs” value in data set [2] (by the difference in half-lives of intravenous versus inhaled doses) is around 2 h. In data set [2] (in vivo), the oral bioavailability is recorded as 20–25%, the clearance is 37.3 L/h and the volume of distribution is 100 to 150 L. Also, the “half-life after inhaled dose” value in data set [2] (inhaled) was 3.6 h. In data set [2], the “half-life after intravenous administration” value was 1.4 to 2.0 h.
Take `CCCC1O[C@@H]2C[C@H]3[C@@H]4CCC5=CC(=O)C=C[C@]5(C)[C@H]4[C@@H](O)C[C@]3(C)[C@]2(C(=O)CO)O1` (stereo partly shown) [Budesonide, budesonide]: the “time of peak plasma concentration” value in data set [3] was 0.5 h. Moreover, in data set [3] (calculated), the MAT is 0.3 h. The plasma protein binding with plasma protein is on record as 88%. Moreover, the Cmax in data set [2] (after inhalation via Turbohaler) was 3.5 nM. Also, the plasma half-life in data set [2] (approximately the same after intravenous and inhalation administration) was 2.8 h. For the same compound, in data set [2] (in vivo), the oral bioavailability is 11% and the “volume of distribution at steady state” value was 183 L. Moreover, the “first-pass metabolism of an oral dose” value in data set [2] (oral) was “About 89%”.
`CC(C)NCC(O)c1ccc(O)c(O)c1` (stereo not shown) [free isopreternol, isoproterenol]: the “duration of amelioration of bronchoconstriction” value in data set [4] is listed as 30 min.
Consider Triamcinolone acetonide phosphate [TAP], for which, in data set [2] (IV administration in humans), the plasma half-life is 0.05 to 0.067 h.
`CCC(=O)O[C@]1(C(=O)SCF)[C@H](C)C[C@H]2[C@@H]3C[C@H](F)C4=CC(=O)C=C[C@]4(C)[C@@]3(F)[C@@H](O)C[C@@]21C` [FP, fluticasone propionate]: the “receptor binding affinity (RBA)” value in data set [5] is 1800. Further, the plasma protein binding with plasma protein was 90%. The “pulmonary deposition ratio, DPI” value in data set [1] (dry powder inhaler) is listed as 15%. Besides, in data set [1], the “pulmonary deposition ratio, MDI” value is 26%. Besides, in data set [2] (Möllmann et al., 1998), the “t1/2 (dose-dependent)” value was 5.2 to 7.4 h and 6.0 ± 0.7 h. Also, the “terminal half-life after inhalation” value in data set [2] (Thorsson et al. 1997) is 10 h. In data set [2] (after inhalation), the “mean absorption time (MAT)” value was 4.9 h. Also, in data set [2] (in vivo), the oral bioavailability entry is on record as “less than 1%”, the clearance was 66 L/h, the “drug excreted in the feces” value is listed as 87–100% and the “excreted as the inactive 17-carboxylic acid” value is on record as 340%. Besides, the “volume of distribution at steady state” value in data set [2] (in vivo) is 318 L. Also, in data set [2] (inhalation), the “overall bioavailability after inhalation” value is 10–15%. In addition, the “mean residence time after inhaled administration (AUMC/AUC)” value in data set [2] (inhaled) is 9.1 ± 1.1 h and 7.8 to 11 h. For the same compound, in data set [2], the “half-life after intravenous administration” value is 7.7 to 8.3 h.

Values taken from patent US6984404B1, “Methods for preparing coated drug particles and pharmaceutical formulations thereof” (University of Florida Research Foundation, Inc., priority 1998, dated 2006).
